Assay results reported in patent US11008346B2, “Beta-lactamase inhibitors” (priority 2014, dated 2021).
Where two headings read alike, the source gives them in different places.

Tests used:
[1] = test system: K. pneumoniae 156319 expressing KPC-3; experiment: broth microdilution MIC, K. pneumoniae KPC-3; format: cell-based; conditions: Fixed Mero (meropenem) 4 μg/mL
Outline: (§1)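 Following CLSI broth microdilution, plates were read by eye for MIC after 16–20 h incubation at 37 °C. Each well held a fixed 4 μg/mL β-lactam overlay plus test compound serially halved from 32 to 0.25 μg/mL in CAMHB. Inocula came from 3–5 h broth cultures.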

[2] = test system: E. coli ESBL4 expressing CTX-M-15; experiment: broth microdilution MIC, E. coli CTX-M-15; format: cell-based; conditions: Fixed CAZ (ceftazidime) 4 μg/mL
Outline: as §1

SHV-5 β-lactamase = biological target: T1, SHV-5 β-lactamase (Klebsiella pneumoniae, UniProt P0A3M1); experiment: β-lactamase enzyme inhibition, SHV-5; format: biochemical
T1 construct: made in house; host or cells: E. coli BL21(DE3)
T1 sequence (P0A3M1 22-286): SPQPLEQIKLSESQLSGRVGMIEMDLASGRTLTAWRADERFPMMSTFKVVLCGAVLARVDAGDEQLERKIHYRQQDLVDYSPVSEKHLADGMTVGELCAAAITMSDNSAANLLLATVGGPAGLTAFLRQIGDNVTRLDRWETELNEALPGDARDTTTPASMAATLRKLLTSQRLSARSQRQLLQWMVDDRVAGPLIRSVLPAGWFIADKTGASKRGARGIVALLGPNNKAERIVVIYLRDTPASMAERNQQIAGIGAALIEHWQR
Outline: (§2)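 Enzyme + inhibitor, 15 min, 37° C; substrate added, absorbance read 10 min. OXA-1/p99 AmpC: nitrocefin 100 μM final, A486. KPC-2: imipenem, A300. SHV-5: cefotaxime, A260. IC50 = 50% drop in initial hydrolysis rate vs no-inhibitor control.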

KPC-2 β-lactamase = biological target: T2, KPC-2 β-lactamase (Klebsiella pneumoniae, UniProt Q9F663); experiment: β-lactamase enzyme inhibition, KPC-2; format: biochemical
T2 construct: made in house; host or cells: E. coli BL21(DE3)
T2 sequence (Q9F663 25-293, looked up): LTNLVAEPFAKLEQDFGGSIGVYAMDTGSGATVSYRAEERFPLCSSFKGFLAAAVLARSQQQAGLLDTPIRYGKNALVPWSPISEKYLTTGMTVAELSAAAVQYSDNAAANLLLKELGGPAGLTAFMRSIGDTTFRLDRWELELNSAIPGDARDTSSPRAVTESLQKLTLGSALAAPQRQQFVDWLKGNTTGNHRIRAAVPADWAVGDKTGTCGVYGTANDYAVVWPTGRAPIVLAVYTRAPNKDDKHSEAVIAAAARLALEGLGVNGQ
Outline: as §2

OXA-1 β-lactamase = biological target: T3, OXA-1 β-lactamase (Escherichia coli, UniProt P13661); experiment: β-lactamase enzyme inhibition, OXA-1; format: biochemical; conditions: Nitrocefin 100 μM, 486 nm; 15 min at 37° C. preincubation; read-out: IC50 OXA-1 (Class D)
T3 construct: made in house; host or cells: E. coli BL21(DE3)
T3 sequence (P13661 26-276): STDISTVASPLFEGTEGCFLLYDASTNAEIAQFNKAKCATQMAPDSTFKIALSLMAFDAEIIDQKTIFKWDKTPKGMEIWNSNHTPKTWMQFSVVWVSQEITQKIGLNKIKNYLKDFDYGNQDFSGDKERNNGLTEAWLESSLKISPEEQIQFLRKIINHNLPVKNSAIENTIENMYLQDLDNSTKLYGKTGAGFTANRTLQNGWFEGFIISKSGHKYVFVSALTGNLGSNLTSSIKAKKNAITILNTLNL
Outline: as §2

[3] = biological target: T4, VIM-2 metallo β-lactamase (Pseudomonas aeruginosa, UniProt Q9K2N0); experiment: β-lactamase enzyme inhibition, VIM-2; format: biochemical; conditions: Nitrocefin 100 μM, 486 nm; 15 min at 37° C. preincubation; read-out: IC50 VIM-2 (Class B)
T4 construct: made in house; host or cells: E. coli BL21(DE3)
Outline: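 Inhibitor and enzyme sat together 15 min at 37° C before 100 μM nitrocefin (final) was added and 486 nm absorbance read for 10 min. IC50 is the concentration halving initial hydrolysis rate relative to uninhibited wells. Protein came from Q sepharose anion exchange at pH 7.5, repeated to >90% purity.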

[4] = test system: K. pneumoniae A-1797 expressing KPC-2 and VIM-4; experiment: broth microdilution MIC, K. pneumoniae KPC-2 and VIM-4; format: cell-based; conditions: Fixed Mero (meropenem) 4 μg/mL
Outline: as §1

[5] = test system: S. aureus MSSA-7 producing penicillinase PC-1; experiment: broth microdilution MIC, S. aureus PC-1; format: cell-based; conditions: Fixed Pip (piperacillin) 4 μg/mL
From the text: (§3) To determine the ability of test compounds to potentiate the inhibition of the growth of bacterial strains that produce beta-lactamase enzymes, classic cell based broth microdilution MIC assays were employed. Six bacteria strains producing beta-lactamase enzymes were used: E. coli expressing the Class A Extended Spectrum Beta-Lactamase (ESBL) CTX-M-15, E. cloacae expressing the Class C P99, K. pneumoniae expressing the Class A carbapenemase KPC-3, P. aeruginosa expressing the Class B carbapenemase VIM-2, K pneumoniae expressing the class A carbapenemase KPC-2 and the class B carbapenemase VIM-4, and S. aureus producing the Class A penicillinase PC-1. The assay was conducted in Cation Adjusted Mueller Hinton Broth (CAMHB, BD #212322, BD Diagnostic Systems, Sparks, Md.). Bacteria strains were grown for 3-5 hours in CAMBH broth. Test compounds were added to a microtiter plate in 2-fold serial dilutions in CAMHB in a final concentration range of 32 μg/mL to 0.25 μg/ml. An overlay of CAMHB containing a Beta-lactam was added to the compounds at a final static concentration of 4 μg/ml. […] In addition to the titration of test compounds the MICs of a panel of control beta-lactams is also tested to ensure the strains are behaving consistently from test to test. Once the test compound and antibiotics are added the plates can be inoculated according to CLSI broth microdilution method. After inoculation the plates are incubated for 16-20 hours at 37° C., then the Minimal Inhibitory Concentration (MIC) of the test compound is determined visually.
(§4) Using the methodology described above, examples of the current invention were evaluated for their ability to inhibit the growth of β-lactamase-producing bacteria in the presence of a β-lactam antibiotic.
(§5) Representative results are shown in Table 4 where A represents an MIC of the fixed β-lactam antibiotic in the presence of >32 µg/mL of a β-lactamase inhibitor of exemplary compounds, B represents the MIC in the presence of between 8 and 32 µg/mL of a β-lactamase inhibitor of exemplary compounds, and C represents the MIC in the presence of ≤4 µg/mL of a β-lactamase inhibitor of exemplary compounds. NT=Not Tested.

[6] = test system: E. cloacae 144200 expressing Class C P99 AmpC; experiment: broth microdilution MIC, E. cloacae P99; format: cell-based; conditions: Fixed CAZ (ceftazidime) 4 μg/mL
Outline: as §1

p99 AmpC β-lactamase = biological target: T5, p99 AmpC β-lactamase (Enterobacter cloacae, UniProt P05364); experiment: β-lactamase enzyme inhibition, p99 AmpC; format: biochemical
T5 construct: made in house; host or cells: E. coli BL21(DE3)
T5 sequence (P05364 21-381): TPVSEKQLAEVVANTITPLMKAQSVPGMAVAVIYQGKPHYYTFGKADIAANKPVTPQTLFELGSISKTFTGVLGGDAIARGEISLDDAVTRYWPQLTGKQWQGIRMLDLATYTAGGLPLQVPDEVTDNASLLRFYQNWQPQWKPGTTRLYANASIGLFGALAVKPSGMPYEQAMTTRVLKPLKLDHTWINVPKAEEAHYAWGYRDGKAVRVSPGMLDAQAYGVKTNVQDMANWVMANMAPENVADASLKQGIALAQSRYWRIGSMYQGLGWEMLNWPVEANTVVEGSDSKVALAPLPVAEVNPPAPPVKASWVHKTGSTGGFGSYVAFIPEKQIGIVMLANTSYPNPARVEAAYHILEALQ
Outline: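 Inhibitor and enzyme were incubated 15 min at 37°C first. The enzyme was recombinant p99 AmpC, untagged, from E. coli BL21(DE3), purified by ion-exchange and size-exclusion chromatography.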

[7] = test system: P. aeruginosa Ps296 expressing VIM-2; experiment: broth microdilution MIC, P. aeruginosa VIM-2; format: cell-based; conditions: Fixed Mero (meropenem) 4 μg/mL
From the text: as §3, §4, §5

[8] = imipenem substrate, 300 nm, 15 min at 37° C. preincubation, read-out: IC50 KPC-2 (Class A)

SMILES | MIC of exemplary compounds in presence of fixed β-lactams, K.P. 156319 KPC-3 [1] | MIC of exemplary compounds in presence of fixed β-lactams, E. coli ESBL4 CTX-M-15 [2] | IC50 (SHV-5 β-lactamase) [nM] | IC50 (KPC-2 β-lactamase; [8]) [nM] | IC50 (OXA-1 β-lactamase) [nM] | IC50 [3] [nM] | MIC of exemplary compounds in presence of fixed β-lactams, K.P. A-1797 KPC-2 VIM-4 [4] | MIC of exemplary compounds in presence of fixed β-lactams, S. aureus MSSA-7 PC-1 [5] | MIC of exemplary compounds in presence of fixed β-lactams, E. cl. 144200 p99 AmpC [6] | IC50 (p99 AmpC β-lactamase) [nM] | MIC of exemplary compounds in presence of fixed β-lactams, P. aerug. Ps296 VIM-2 [7] | IC50 (KPC-2 β-lactamase) [nM]
O=C(O)c1cccc2c1OB(O)[C@@H](NC(=O)C(Cl)CC(F)F)C2 (stereo partly drawn) [Example 5, (R)-3-(2-Chloro-4,4-difluoro-butyrylamino)-2-hydroxy-3,4-dihydro-2H-benzo[e][1,2]oxaborinine-8-carboxylic acid] | C (C represents the MIC in the presence of ≤4 g/mL of a β-lactamase inhibitor) | C (C represents the MIC in the presence of ≤4 g/mL of a β-lactamase inhibitor) | < 100 | < 100 | < 100 | 1000 to 10000 | B (B represents the MIC in the presence of between 8 and 32 g/mL of a β-lactamase inhibitor) | C (C represents the MIC in the presence of ≤4 g/mL of a β-lactamase inhibitor) | C (C represents the MIC in the presence of ≤4 g/mL of a β-lactamase inhibitor) | < 100 | A (A represents an MIC of the fixed β-lactam antibiotic in the presence of >32 g/mL of a β-lactamase inhibitor) | 
CC(C)CC(=O)N[C@H]1Cc2cccc(C(=O)O)c2OB1O [Example 6, (R)-2-Hydroxy-3-(3-methyl-butyrylamino)-3,4-dihydro-2H-benzo[e][1,2]oxaborinine-8-carboxylic acid] | C (C represents the MIC in the presence of ≤4 g/mL of a β-lactamase inhibitor) | C (C represents the MIC in the presence of ≤4 g/mL of a β-lactamase inhibitor) | < 100 | < 100 | < 100 | 1000 to 10000 | A (A represents an MIC of the fixed β-lactam antibiotic in the presence of >32 g/mL of a β-lactamase inhibitor) | C (C represents the MIC in the presence of ≤4 g/mL of a β-lactamase inhibitor) | C (C represents the MIC in the presence of ≤4 g/mL of a β-lactamase inhibitor) | < 100 | B (B represents the MIC in the presence of between 8 and 32 g/mL of a β-lactamase inhibitor) | 
N#CCCC(=O)N[C@H]1Cc2cccc(C(=O)O)c2OB1O [Example 8, (R)-3-(3-Cyano-propionylamino)-2-hydroxy-3,4-dihydro-2H-benzo[e][1,2]oxaborinine-8-carboxylic acid] | C (C represents the MIC in the presence of ≤4 g/mL of a β-lactamase inhibitor) | C (C represents the MIC in the presence of ≤4 g/mL of a β-lactamase inhibitor) | < 100 |  | < 100 | 100 to 1000 | C (C represents the MIC in the presence of ≤4 g/mL of a β-lactamase inhibitor) | C (C represents the MIC in the presence of ≤4 g/mL of a β-lactamase inhibitor) | C (C represents the MIC in the presence of ≤4 g/mL of a β-lactamase inhibitor) | < 100 | C (C represents the MIC in the presence of ≤4 g/mL of a β-lactamase inhibitor) | < 100
CC(=O)CCC(=O)N[C@H]1Cc2cccc(C(=O)O)c2OB1O [Example 10, (R)-2-Hydroxy-3-(4-oxo-pentanoylamino)-3,4-dihydro-2H-benzo[e][1,2]oxaborinine-8-carboxylic acid] | C (C represents the MIC in the presence of ≤4 g/mL of a β-lactamase inhibitor) | C (C represents the MIC in the presence of ≤4 g/mL of a β-lactamase inhibitor) | < 100 |  | < 100 | 100 to 1000 | C (C represents the MIC in the presence of ≤4 g/mL of a β-lactamase inhibitor) | C (C represents the MIC in the presence of ≤4 g/mL of a β-lactamase inhibitor) | C (C represents the MIC in the presence of ≤4 g/mL of a β-lactamase inhibitor) | < 100 | C (C represents the MIC in the presence of ≤4 g/mL of a β-lactamase inhibitor) | 100 to 1000
CC(Cl)(Cl)C(=O)N[C@H]1Cc2cccc(C(=O)O)c2OB1O [Example 11, (R)-3-(2,2-Dichloro-propionylamino)-2-hydroxy-3,4-dihydro-2H-benzo[e][1,2]oxaborinine-8-carboxylic acid] | C (C represents the MIC in the presence of ≤4 g/mL of a β-lactamase inhibitor) | C (C represents the MIC in the presence of ≤4 g/mL of a β-lactamase inhibitor) | < 100 | < 100 | < 100 | 1000 to 10000 | A (A represents an MIC of the fixed β-lactam antibiotic in the presence of >32 g/mL of a β-lactamase inhibitor) | C (C represents the MIC in the presence of ≤4 g/mL of a β-lactamase inhibitor) | C (C represents the MIC in the presence of ≤4 g/mL of a β-lactamase inhibitor) | < 100 | B (B represents the MIC in the presence of between 8 and 32 g/mL of a β-lactamase inhibitor) | 
O=C(/C=C/Cl)N[C@H]1Cc2cccc(C(=O)O)c2OB1O [Example 12, (R)-3-(3-Chloro-acryloylamino)-2-hydroxy-3,4-dihydro-2H-benzo[e][1,2]oxaborinine-8-carboxylic acid] | B (B represents the MIC in the presence of between 8 and 32 g/mL of a β-lactamase inhibitor) | C (C represents the MIC in the presence of ≤4 g/mL of a β-lactamase inhibitor) | < 100 | < 100 | < 100 | 100 to 1000 | A (A represents an MIC of the fixed β-lactam antibiotic in the presence of >32 g/mL of a β-lactamase inhibitor) | C (C represents the MIC in the presence of ≤4 g/mL of a β-lactamase inhibitor) | C (C represents the MIC in the presence of ≤4 g/mL of a β-lactamase inhibitor) | < 100 | B (B represents the MIC in the presence of between 8 and 32 g/mL of a β-lactamase inhibitor) | 
